In patent US20200222377A1, “Methods Of Enhancing And/Or Stabilizing Cardiac Function In Patients With Fabry Disease” (Amicus Therapeutics, Inc., priority 2017, published 2020):

How the values were obtained:
ERT-naïve Fabry patients [1] = settings: human, in vivo
Method: (§1) Study Design. Following eligibility-baseline assessments (2 months), patients were randomized to Stage 1—6 months of double-blind administration of 150 mg migalastat hydrochloride or placebo every other day. All patients completing Stage 1 were eligible to receive open-label migalastat in Stage 2 (months 6-12) and for an additional year (months 13-24) thereafter. The primary objective was to compare the effect of migalastat to placebo on kidney GL-3 as assessed by histological scoring of the number of inclusions in interstitial capillaries after 6 months of treatment. The secondary objectives of Stage 1 were to compare the effect of migalastat to placebo on urine GL-3 levels, on renal function, 24-hours urinary protein, and on safety and tolerability. The tertiary objectives were cardiac function, patient-reported outcomes, exploratory kidney analyses, and white blood cell α-Gal A activity. Study completers were eligible to enroll in the open-label extension study for up to 5 years.
(§2) Safety Analysis and Adverse Events. Randomized patients receiving ≥1 dose were included in the safety analysis, which comprised vital signs, physical exams, electrocardiograms, clinical labs, and adverse events.

[2] = test system: ERT-experienced Fabry patients; assay: Phase 3 study of migalastat therapy in ERT-experienced Fabry patients: MWFS by echocardiography; type: in vivo, human
Method: This example describes a Phase 3 study of migalastat therapy in ERT-experienced Fabry patients.
Study Design. Following eligibility-baseline assessments, 57 patients were randomized to 18 months of migalastat therapy or ERT, followed by followed by 12 months of migalastat therapy. The migalastat dosing regimen was 150 mg of migalastat hydrochloride every other day.
Baseline MWFS. At baseline, impaired MWFS (<15% for females and <14% for males) was reported in 19 (14 migalastat, 5 ERT) patients.

ERT-naïve Fabry patients [3] = assay: Phase 3 study in ERT-naïve Fabry patients: safety analysis and adverse events
Method: as §1, §2

ERT-naïve Fabry patients [4] = assay: Phase 3 study of migalastat therapy in ERT-naïve Fabry patients: MWFS by echocardiography; type: in vivo, human; settings: for Change from baseline in MWFS, mean / Mean change from baseline in MWFS: amenable mutations
Method: This example describes a Phase 3 study of migalastat therapy in ERT-naïve Fabry patients. Patient Enrollment. […] Study Design. […] Echocardiography. LVMi, left posterior wall thickness, diastolic, interventricular septum thickness, diastolic and other parameters were assessed through blinded, centralized evaluation. Baseline MWFS. At baseline, impaired MWFS (<15% for females and <14% for males) was reported in 9 patients.

[5] = molecular target: T1, wild-type α-Gal A and specific mutant forms of α-Gal A (Homo sapiens, UniProt P06280); settings: selective and reversible binding; cited from earlier work
T1 sequence (P06280 32-429): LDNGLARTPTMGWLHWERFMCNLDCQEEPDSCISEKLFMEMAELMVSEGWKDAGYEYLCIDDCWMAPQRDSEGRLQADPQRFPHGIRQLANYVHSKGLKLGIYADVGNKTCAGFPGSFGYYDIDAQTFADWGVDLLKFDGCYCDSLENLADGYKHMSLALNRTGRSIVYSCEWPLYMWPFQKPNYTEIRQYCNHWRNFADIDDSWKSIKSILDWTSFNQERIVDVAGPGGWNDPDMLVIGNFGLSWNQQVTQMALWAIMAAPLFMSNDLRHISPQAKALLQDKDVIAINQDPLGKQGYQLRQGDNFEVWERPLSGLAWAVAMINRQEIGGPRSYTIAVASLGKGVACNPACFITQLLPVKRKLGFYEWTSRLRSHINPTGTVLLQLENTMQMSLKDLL

[6] = open-label-extension (months 12-24), 6/57 patients
[7] = patients with LVH at baseline, Month 48

## OC[C@H]1NC[C@H](O)[C@@H](O)[C@H]1O [migalastat, (2R,3S,4R,5S)-2-(hydroxymethyl) piperdine-3,4,5-triol]
ERT-naïve Fabry patients [1]
  Deaths: No deaths were reported
[2]; ERT-experienced patients with impaired MWFS at baseline
  Effect on MWFS (in words): stabilized MWFS
[2]; patients with impaired MWFS at baseline, LOCF, over 30 months of migalastat therapy, n=14
  Mean change from baseline in MWFS: −0.2%
ERT-naïve Fabry patients [3]; Stage 1, migalastat group
  Patients who experienced serious adverse events: 2 patients
ERT-naïve Fabry patients [3]; Stage 2
  Patients who experienced serious adverse events: 5 patients
ERT-naïve Fabry patients [3]; Stage 2 (months 6-12, open-label), 7/63 patients
  Adverse event frequency: procedural pain (related to kidney biopsies): 11%
ERT-naïve Fabry patients [3]; Stage 2 (months 6-12, open-label), 9/63 patients
  Adverse event frequency: headache: 14%
ERT-naïve Fabry patients [3]; as defined in Banikazemi et al.
  Progression to end-stage renal disease, cardiac death, stroke: no progression to end-stage renal disease, no cardiac death and no stroke
ERT-naïve Fabry patients [3]; both deemed unrelated to migalastat
  Patients who discontinued migalastat due to serious adverse events: Two
ERT-naïve Fabry patients [3]; fatigue and paresthesia, same patient, months 12-24, resolved
  Serious adverse events assessed as possibly related to migalastat by the investigator: Two
ERT-naïve Fabry patients [3]; human, in vivo
  Adverse events leading to migalastat discontinuation: No adverse events led to migalastat discontinuation
  Severity of most adverse events: mild or moderate in severity
  Vital sign, physical findings, laboratory and ECG parameters: did not reveal any clinically relevant effect
ERT-naïve Fabry patients [3]; judged unrelated to migalastat
  Transient ischemic attack: single case
ERT-naïve Fabry patients [3]; open-label-extension
  Patients who experienced serious adverse events: 11 patients
ERT-naïve Fabry patients [3]; [6]
  Adverse event frequency: bronchitis: 11%
  Adverse event frequency: headache: 11%
ERT-naïve Fabry patients [3]; open-label-extension (months 12-24), 9/57 patients
  Adverse event frequency: proteinuria (treatment-emergent): 16%
ERT-naïve Fabry patients [3]; patients with baseline proteinuria <300 mg/24-h
  Patients in whom 24-hour urine protein remained stable during migalastat treatment: 23/28
ERT-naïve Fabry patients [4]; ERT-naïve patients with impaired MWFS at baseline
  Effect on MWFS (in words): increased MWFS
ERT-naïve Fabry patients [4]; patients with LVH at baseline, LOCF, over 48 months
  Change from baseline in MWFS, mean: 1.0%
ERT-naïve Fabry patients [4]; patients with LVH at baseline, Month 12
  Change from baseline in MWFS, mean: 0.2%
ERT-naïve Fabry patients [4]; patients with LVH at baseline, Month 24
  Change from baseline in MWFS, mean: 0.9%
ERT-naïve Fabry patients [4]; patients with LVH at baseline, Month 36
  Change from baseline in MWFS, mean: 0.7%
ERT-naïve Fabry patients [4]; [7]
  Change from baseline in MWFS, mean: 0.6%
  Normalization of MWFS, patients n/N (%): 0
ERT-naïve Fabry patients [4]; patients with impaired MWFS at baseline, LOCF, over 48 months
  Mean change from baseline in MWFS: 1.9%
ERT-naïve Fabry patients [4]; patients with impaired MWFS at baseline, LOCF, over 48 months, listed as Migalastat
  Mean change from baseline in MWFS: 1.9%
ERT-naïve Fabry patients [4]; patients with impaired MWFS at baseline, Month 12, 150 mg migalastat HCl QOD
  Mean change from baseline in MWFS: 0.1%
ERT-naïve Fabry patients [4]; patients with impaired MWFS at baseline, Month 24
  Mean change from baseline in MWFS: 1.4%
ERT-naïve Fabry patients [4]; patients with impaired MWFS at baseline, Month 36
  Mean change from baseline in MWFS: 1.4%
ERT-naïve Fabry patients [4]; patients with impaired MWFS at baseline, Month 48
  Mean change from baseline in MWFS: 2.4%
ERT-naïve Fabry patients [4]; patients with impaired MWFS at baseline, Month 12
  Normalization of MWFS, patients n/N (%): 0
[5]
  Binding to the active site of α-Gal A (in words): high affinity
